# Like-named read-outs stand apart in the source and are kept apart here.
# Legend:
# [1] = biological target: human recombinant TAK1-TAB1 Kinase (TAK1 (1-303) and TAB1 (437-end)) (Homo sapiens (Human), UniProt O43318); test: TAK1 biochemical ADP-Glo kinase assay; details: MBP substrate
# Outline: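 Inhibition of human recombinant TAK1-TAB1 kinase was measured with a Promega ADP-Glo luminescence assay in 384-well plates. Compounds in 5% DMSO were pre-incubated 10 min with 2 μl TAK1-TAB1 (7.5 ng/μl) in buffer of Tris pH 7.5, MgCl2, DTT and BSA. MBP substrate and ATP were then added for 1 hour at room temperature. ADP-Glo reagent and kinase detection substrate followed, luminescence was read on an Envision, and IC50 came from non-linear regression.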
# [2] = Solubility assay in phosphate buffer; details: phosphate buffer 100 mM, pH 7.4, room temperature, 20-24 h, LC-UV
# Protocol: The aqueous solubility of selected example compounds was determined as follows; 6 μL of DMSO stock solution of the selected example was added to 594 μL phosphate buffer (100 mM, pH 7.4). The resulting mixture was equilibrated over night (20-24 h, Alligator Shaker, room temperature). The mixture was then filtered (Millex LH 0.45 μm) and the concentration/solubility was determined by LC-UV quantification.
# [3] = 10 μM ATP, read-out: TAK1 Mean IC50 (nM) @ 10 μM ATP
# [4] = 1 mM ATP, read-out: TAK1 Mean IC50 (nM) @ 1 mM ATP
# [5] = phosphate buffer, pH 7.4, aqueous buffer, kinetic from dmso stock, Solubility (μM)
# human recombinant TAK1-TAB1 Kinase (TAK1 (1-303) and TAB1 (437-end)), sequence (O43318 other isoform, or with tags, fused parts or gaps): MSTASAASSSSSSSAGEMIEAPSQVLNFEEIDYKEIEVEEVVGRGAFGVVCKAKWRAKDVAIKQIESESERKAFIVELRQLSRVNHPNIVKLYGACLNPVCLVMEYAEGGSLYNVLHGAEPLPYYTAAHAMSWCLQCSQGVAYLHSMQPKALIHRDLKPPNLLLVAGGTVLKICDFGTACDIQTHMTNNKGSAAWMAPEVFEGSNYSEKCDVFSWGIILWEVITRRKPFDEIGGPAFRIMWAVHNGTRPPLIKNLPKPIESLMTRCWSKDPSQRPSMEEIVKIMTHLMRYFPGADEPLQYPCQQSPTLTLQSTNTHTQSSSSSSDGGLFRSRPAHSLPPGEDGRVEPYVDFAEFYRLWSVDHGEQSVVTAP
SMILES,"IC50 [1, 3]","IC50 [1, 4]","solubility [2, 5]",solubility [2]
"CC1CCCCNC(=O)c2cccc(c2)C(=O)/N=C2\Nc3cccc(C(=O)N(C)CCF)c3N21 (single isomer, unassigned) [Example 70, (E)-N-(2-fluoroethyl)-N,11-dimethyl-3,5-dioxo-1^2,1^3-dihydro-1^1H-2,6-diaza-1(2,1)-benzo[d]imidazola-4(1,3)-benzenacycloundecaphane-1^7-carboxamide]",5 nM,6 nM,90 µM,
"CC1CCCCNC(=O)c2cccc(c2)C(=O)/N=C2\Nc3cccc(C(=O)N4CCOC[C@H]4C)c3N21 (single isomer, unassigned) [Example 76]",18 nM,,89 µM,
"C[C@H]1CCCCNC(=O)c2cccc(c2)C(=O)/N=C2\Nc3cccc(N4CCN(C)C4=O)c3N21 [Example 74, (S,E)-11-methyl-1^7-(3-methyl-2-oxoimidazolidin-1-yl)-1^2,1^3-dihydro-1H-2,6-diaza-1(2,1)-benzo[d]imidazola-4(1,3)-benzenacycloundecaphane-3,5-dione]",7 nM,11 nM,90 µM,
"CC(C)N(C)C(=O)c1cccc2c1N1/C(=N/C(=O)c3cccc(c3)C(=O)NCCCCC1C)N2 (centres unmarked) [Example 48, (E)-N-isopropyl-N,11-dimethyl-3,5-dioxo-1^2,1^3-dihydro-1^1H-2,6-diaza-1(2,1)-benzo[d]imidazola-4(1,3)-benzenacycloundecaphane-1^7-carboxamide]",1 nM,,,24.0 µM
"C[C@H]1CCCCNC(=O)c2cccc(c2)C(=O)/N=C2\Nc3cccc(C(=O)N4C[C@H]5C[C@@H]4CN5C)c3N21 [Example 30, (S, E)-11-methyl-1^7-((1R,4R)-5-methyl-2,5-diazabicyclo[2.2.1]heptane-2-carbonyl)-1^2,1^3-dihydro-1^1H-2,6-diaza-1(2,1)-benzo[d]imidazola-4(1,3)-benzenacycloundecaphane-3,5-dione]",8 nM,,95 µM,
"CN1C[C@@H]2C[C@H]1CN2C(=O)c1cccc2c1N1CCCCCNC(=O)c3cccc(c3)C(=O)/N=C/1N2 [Example 22, (E)-1^7-((1S,4S)-5-methyl-2,5-diazabicyclo[2.2.1]heptane-2-carbonyl)-1^2,1^3-dihydro-1^1H-2,6-diaza-1(2,1)-benzo[d]imidazola-4(1,3)-benzenacycloundecaphane-3,5-dione]",9 nM,,88.5 µM,
"CN1CCN(Cc2ccc3c(c2)N2CCCCCNC(=O)c4cccc(c4)C(=O)/N=C/2N3)CC1 [Example 101, (E)-1^6-((4-methylpiperazin-1-yl)methyl)-1^2,1^3-dihydro-1^1H-2,6-diaza-1(2,1)-benzo[d]imidazola-4(1,3)-benzenacycloundecaphane-3,5-dione]",8 nM,,20.8 µM,
"CN1C[C@H]2C[C@@H]1CN2C(=O)c1cccc2c1N1CCCCCNC(=O)c3cccc(c3)C(=O)/N=C/1N2 [Example 25, (E)-1^7-((1R,4R)-5-methyl-2,5-diazabicyclo[2.2.1]heptane-2-carbonyl)-1^2,1^3-dihydro-1^1H-2,6-diaza-1(2,1)-benzo[d]imidazola-4(1,3)-benzenacycloundecaphane-3,5-dione]",2 nM,,82 µM,
"O=C1NCCCCCn2c(nc3cc(C(=O)N4CCNCC4)ccc32)NC(=O)c2cccc1c2 [Example 16, 1^5-(piperazine-1-carbonyl)-1^1H-2,6-diaza-1(2,1)-benzo[d]imidazola-4(1,3)-benzenacycloundecaphane-3,5-dione]",3 nM,,78.8 µM,
"O=C1/N=C2\Nc3ccc(C(=O)N4CCN(C5COC5)CC4)cc3N2CCCCCNC(=O)c2cccc1c2 [Example 98, (E)-1^6-(4-(oxetan-3-yl)piperazine-1-carbonyl)-1^2,1^3-dihydro-1^1H-2,6-diaza-1(2,1)-benzo[d]imidazola-4(1,3)-benzenacycloundecaphane-3,5-dione]",5 nM,,4.7 µM,
"COC1(C)CN(C(=O)c2cccc3c2N2/C(=N/C(=O)c4cccc(c4)C(=O)NCCCCC2C)N3)C1 (centres unmarked) [Example 49, (E)-1^7-(3-methoxy-3-methylazetidine-1-carbonyl)-11-methyl-1^2,1^3-dihydro-1^1H-2,6-diaza-1(2,1)-benzo[d]imidazola-4(1,3)-benzenacycloundecaphane-3,5-dione]",3 nM,,89 µM,
"O=C1NCCCCCn2c(nc3cc(C(=O)N4CCN(C5COC5)CC4)ccc32)NC(=O)c2cccc1c2 [Example 12, 1^5-(4-(oxetan-3-yl)piperazine-1-carbonyl)-1^1H-2,6-diaza-1(2,1)-benzo[d]imidazola-4(1,3)-benzenacycloundecaphane-3,5-dione]",1 nM,,31.1 µM,
"O=C1NCCCCCn2c(nc3cccc(C(=O)N4CCNCC4)c32)NC(=O)c2cccc1c2 [Example 17, 1^7-(piperazine-1-carbonyl)-1^1H-2,6-diaza-1(2,1)-benzo[d]imidazola-4(1,3)-benzenacycloundecaphane-3,5-dione]",4 nM,,93.6 µM,
"C[C@H]1CCCCn2c(nc3cccc(C(=O)N(C)C)c32)NC(=O)c2cccc(c2)C(=O)N1 [Example 44, (S,E)-N,N,7-trimethyl-3,5-dioxo-1^2,1^3-dihydro-1^1H-2,6-diaza-1(2,1)-benzo[d]imidazola-4(1,3)-benzenacycloundecaphane-1^7-carboxamide]",223 nM,,26 µM,
"CN(C)[C@H]1CCN(C(=O)c2cccc3c2N2CCCCCNC(=O)c4cccc(c4)C(=O)/N=C/2N3)C1 [Example 21, (S,E)-1^7-(3-(dimethylamino)pyrrolidine-1-carbonyl)-1^2,1^3-dihydro-1^1H-2,6-diaza-1(2,1)-benzo[d]imidazola-4(1,3)-benzenacycloundecaphane-3,5-dione]",7 nM,,85.1 µM,
"C[C@H]1CN(C)CCN1C(=O)c1cccc2c1N1CCCCCNC(=O)c3cccc(c3)C(=O)/N=C/1N2 [Example 24, (S,E)-1^7-(2,4-dimethylpiperazine-1-carbonyl)-1^2,1^3-dihydro-1^1H-2,6-diaza-1(2,1)-benzo[d]imidazola-4(1,3)-benzenacycloundecaphane-3,5-dione]",4 nM,,26.2 µM,
"CC(=O)Nc1cccc2c1N1/C(=N/C(=O)c3cccc(c3)C(=O)NCCCCC1C)N2 (centres unmarked) [Example 45, (E)-N-(11-methyl-3,5-dioxo-1^2,1^3-dihydro-1^1H-2,6-diaza-1(2,1)-benzo[d]imidazola-4(1,3)-benzenacycloundecaphane-1^7-yl)acetamide]",4 nM,,74 µM,
"CC(C)(C)OC(=O)N1CCN(C(=O)c2cccc3nc4n(c23)CCCCCNC(=O)c2cccc(c2)C(=O)N4)CC1 [Example 14, tert-butyl 4-(3,5-dioxo-1^1H-2,6-diaza-1(2,1)-benzo[d]imidazola-4(1,3)-benzenacycloundecaphane-1^7-carbonyl)piperazine-1-carboxylate]",11 nM,,0.3 µM,
"CN1CCN(C(=O)c2cccc3nc4n(c23)CCCCCNC(=O)c2cccc(c2)C(=O)N4)CC1 [Example 10, 1^7-(4-methylpiperazine-1-carbonyl)-1^1H-2,6-diaza-1(2,1)-benzo[d]imidazola-4(1,3)-benzenacycloundecaphane-3,5-dione]",11 nM,,28 µM,
"CN1CCCN(C(=O)c2cccc3c2N2CCCCCNC(=O)c4cccc(c4)C(=O)/N=C/2N3)CC1 [Example 26, (E)-1^7-(4-methyl-1,4-diazepane-1-carbonyl)-1^2,1^3-dihydro-1^1H-2,6-diaza-1(2,1)-benzo[d]imidazola-4(1,3)-benzenacycloundecaphane-3,5-dione]",5 nM,,78.7 µM,
"CC1CCCCNC(=O)c2cccc(c2)C(=O)/N=C2\Nc3cccc(-c4nccn4C)c3N21 (single isomer, unassigned) [Example 136, (E)-11-methyl-1^7-(1-methyl-1H-imidazol-2-yl)-1^2,1^3-dihydro-1^1H-2,6-diaza-1(2,1)-benzo[d]imidazola-4(1,3)-benzenacycloundecaphane-3,5-dione]",4 nM,,11 µM,
"COC1(C)CN(C(=O)c2cccc3c2N2/C(=N/C(=O)c4cccc(c4)C(=O)NCCCCC2C)N3)C1 (centres unmarked) [Example 50, (E)-1^7-(3-methoxy-3-methylazetidine-1-carbonyl)-11-methyl-1^2,1^3-dihydro-1^1H-2,6-diaza-1(2,1)-benzo[d]imidazola-4(1,3)-benzenacycloundecaphane-3,5-dione]",3 nM,,,80.0 µM
"O=C1NCCCCCCn2c(nc3ccccc32)NC(=O)c2cccc1c2 [Example 1, 1^1H-2,6-diaza-1(2,1)-benzo[d]imidazola-4(1,3)-benzenacyclododecaphane-3,5-dione]",27 nM,,1.2 µM,
"C[C@@H]1CN(C)CCN1C(=O)c1cccc2c1N1CCCCCNC(=O)c3cccc(c3)C(=O)/N=C/1N2 [Example 20, (R,E)-1^7-(2,4-dimethylpiperazine-1-carbonyl)-1^2,1^3-dihydro-1^1H-2,6-diaza-1(2,1)-benzo[d]imidazola-4(1,3)-benzenacycloundecaphane-3,5-dione]",19 nM,,35 µM,
"CC1CCCCNC(=O)c2cccc(c2)C(=O)Nc2nc3cccc(C(=O)N(C)C)c3n21 (single isomer, unassigned) [Example 32, (E)-N,N,11-trimethyl-3,5-dioxo-1^2,1^3-dihydro-1^1H-2,6-diaza-1(2,1)-benzo[d]imidazola-4(1,3)-benzenacycloundecaphane-1^7-carboxamide]",3 nM,14 nM,95 µM,

# Source: patent US20240279233A1, “MACROCYCLIC TAK1 INHIBITORS” (Aqilion AB, priority 2021, published 2024)
